Reference: US20060276406A1, “Methods of treating hepatitis C virus” (Schering Corporation, priority 2005, published 2006)

How the values were obtained:
[1] = Solubility in water / aqueous systems; assay type: physicochemical
[2] = Treatment study: plasma Cmin after oral dosing for 14 days in HCV genotype-1 patients; assay type: in vivo, human; settings: for Plasma Mean Cmin at 0 hour (trough) predose: 14 days, preliminary mean
Procedure: FIG. 2 is a box plot showing trough plasma levels of a compound of Formula Ia measured on day 14 at various times when a compound of Formula Ia is administered twice per day (bid, left box) and when a compound of Formula Ia is administered three times per day (tid, right box). It has been determined that metabolism of compounds of the present invention is also affected by the patient's circadian rhythm. As shown in FIG. 2 (right hand box), plasma levels of the drug are highest in the morning, when measured 8 hours after the previous dose and before the morning dose is administered.

## CC(C)(C)NC(=O)N[C@H](C(=O)N1CC2C([C@H]1C(=O)NC(CC1CCC1)C(=O)C(N)=O)C2(C)C)C(C)(C)C (stereo partly drawn) [Formula Ia, (1R,5S)-N-[3-Amino-1-(Cyclobutylmethyl)-2,3-Dioxopropyl]-3-[2(S)-[[[(1,1-Dimethylethyl)Amino]Carbonyl]Amino]-3,3-Dimethyl-1-Oxobutyl]-6,6-Dimethyl-3-Azabicyclo[3.1.0]Hexan-2(S)-Carboxamide]
[1]
  solubility: ~600 µg/mL
[2]; 100 mg BID oral, n = 12, HCV genotype-1 patients
  Plasma Mean Cmin at 0 hour (trough) predose: Cmin = 12.7 ng/ml
[2]; 200 mg BID oral, n = 12, HCV genotype-1 patients
  Plasma Mean Cmin at 0 hour (trough) predose: Cmin = 46.3 ng/ml
[2]; 400 mg BID oral, n = 11, HCV genotype-1 patients
  Plasma Mean Cmin at 0 hour (trough) predose: Cmin = 48.8 ng/ml
[2]; 400 mg TID oral, n = 10, HCV genotype-1 patients
  Plasma Mean Cmin at 0 hour (trough) predose: Cmin = 183 ng/ml
[2]; all dosing regimens of Table 1
  average Cmin plasma concentration maintained: ≥ 10 ng/mL
